# Where two headings read alike, the source gives them in different places.
# Key:
# [1] = system: Aedes aegypti adult female mosquitoes; assay: Arm over cage contact repellency, geraniol/co-solvent formulations (Example 18); format: in vivo; conditions: about 0.3 mL on collagen membrane aged one hour; 5 minute count; average of 4 replicates
# Experimental: Twenty five Aedes aegypti adult female mosquitoes were introduced into a 1 ft×1 ft×1 ft cage. The mosquitoes were starved for at least 2 hours before repellency testing. The test formulation or control substance (see “Treatments”) was applied at a rate of approximately 0.3 mL onto a dampened collagen membrane (2.5 inches by 6 inches) to mimic the effect of skin, and the membrane was allowed to age for one hour while resting on a damp cloth. An untreated, dampened collagen membrane was placed on a mesh opening at the top of the test cage, and a researcher's arm was suspended -1/4 inch above the membrane to act as an attractant. The numbers of landings and probings of the untreated membrane were counted during a 5 minute period, and these counts were used as the baseline level of activity for that specific replicate of mosquitoes. Immediately after the baseline count, an aged, treated membrane was placed on top of the cage, and the numbers of landings and probings of the treated membrane were counted during a 5 minute period for the same replicate of mosquitoes. […] Repellency was calculated as one minus the ratio of the average number of probings or landings using the treated membrane divided by the average number of probings or landings using the untreated membrane from the same cages over the same four replicates of mosquitoes. […]
# [2] = rats; cited from earlier work
# [3] = partially soluble in water; cited from earlier work
# [4] = system: mosquito pupae; assay: Mosquito pupae killing (Example 8, previous testing); format: in vivo, Aedes aegypti or Anopheles quadrimaculatus; conditions: 0.03% nootkatone/1% ethanol; within 24 hours
# Experimental: Pupae preparation. Eggs of Aedes aegypti or Anopheles quadrimaculatus were purchased from a commercial supplier. Eggs were hatched in sterile MilliQ water and fed with finely ground Tetramin® fish food until they developed into pupae.
# Pupae experiments. Clean, glass 600 mL beakers were washed and thoroughly rinsed prior to use as test containers. On testing days, pupae were removed from dishes used to grow larvae. Replicates of 10 pupae each were randomly assigned to glass beakers in a volume of 100 mL of sterile MilliQ water, and a treatment (see “Treatments” below) is added. A minimum of three control replicates and 4 treated replicates were tested on more than one day. The beakers were then covered lightly with Kimwipes®, secured by rubber bands to prevent escape of adults. The beakers were observed after 24 hours, and the numbers of live pupae, dead pupae, live adults, and dead adults were recorded.
# Treatments. An aliquot of 0.5-1 mL of formulations such as those used in Example 1 was added to each test beaker. Control beakers consist of 100 mL of sterile MilliQ water.
# [5] = system: mosquito pupae; assay: Prevention of adult emergence from pupae (Example 9, previous testing); format: in vivo, Aedes aegypti or Anopheles quadrimaculatus; conditions: 0.015% nootkatone/0.5% ethanol (v/v) in water for 48 hours
# Text: Pupae preparation. Eggs of Aedes aegypti or Anopheles quadrimaculatus were purchased from a commercial supplier. They were hatched in sterile MilliQ water and fed with finely ground TetraMin® fish food (fish meal, dried yeast, ground brown rice, shrimp meal, wheat gluten, feeding oat meal, fish oil, potato protein, dehulled soybean meal, soybean oil, algae meal, sorbitol, lecithin, monobasic calcium phosphate, ascorbic acid, yeast extract, inositol, niacin, L-ascorbyl-2-polyphosphate, riboflavin-5-phosphate, α-tocopherol-acetate, d-calcium pantothenate, thiamine mononitrate, pyridoxine hydrochloride, vitamin A palmitate, menadione sodium bisulfite complex, biotin, vitamin B12 supplement, cholcalciferol, manganese sulfate monohydrate, zinc sulfate monohydrate, ferrous sulfate monohydrate, cobalt acetate) until they developed into pupae.
# Pupae experiments. Clean, glass 600 mL beakers were washed and thoroughly rinsed prior to use as test containers. On each of four testing days, pupae were removed from dishes used to grow larvae. Replicates of 10 pupae each were randomly assigned to glass beakers in a volume of 100 mL of sterile MilliQ water, and a treatment (see “Treatments” below) is added. The beakers are then covered lightly with Kimwipes® and secured by rubber bands to prevent escape of adults. […]
# Treatments. […]
# [6] = system: yellow fever mosquitoes (Aedes aegypti) adults; assay: whole plant or invertebrate; format: in vivo; conditions: 1% w/v nootkatone in ethanol dried on filter paper, mortality reached at 24 hours
# Experimental: (§1) Method: Nootkatone was solubilized in ethanol to a concentration of 1% w/v. The nootkatone solution, or solvent (ethanol) alone as a negative control, was applied directly to filter paper using a micropipette, in an amount of 1 mL for a 9 cm filter paper disc. Filter papers were allowed to dry completely before being cut to the appropriate size prior to the start of the test. Treated and untreated filter papers were cut so that they covered the bottom of a suitable container for each test species (see Table No. 4, below). At each observation period, arthropods were classified as alive, knocked down (KD) or dead.
# (§2) Observation Methods: • a. […] Definitions of “Alive”, “Knockdown (KD)”, and “Dead” are as defined above.
# [7] = system: biting midges; assay: Nootkatone residue on filter paper (Example 13); format: in vivo, biting midge; conditions: 1% w/v nootkatone in ethanol dried on filter paper; mortality reached at 24 hours
# Experimental: as §1, §2
# [8] = system: deer ticks; assay: Nootkatone residue on filter paper (Example 13); format: in vivo, deer tick; conditions: 1% w/v nootkatone in ethanol dried on filter paper; at 72 hours
# Experimental: as §1, §2
# [9] = system: southern house mosquitoes (Culex quinquefasciatus); assay: Nootkatone residue on filter paper (Example 13); format: in vivo; conditions: 24 h
# Experimental: as §1, §2
# [10] = system: Asian tiger mosquitoes (Aedes albopictus); assay: Nootkatone residue on filter paper (Example 13); format: in vivo; conditions: 24 h
# Experimental: as §1, §2
# [11] = system: common malaria mosquitoes (Anopheles quadrimaculatus); assay: Nootkatone residue on filter paper (Example 13); format: in vivo; conditions: 24 h
# Experimental: as §1, §2
# [12] = system: fire ants; assay: Nootkatone residue on filter paper (Example 13); format: in vivo, fire ant
# Experimental: as §1, §2
# [13] = system: aphids; assay: Nootkatone residue on filter paper (Example 13); format: in vivo, aphid; conditions: 1% w/v nootkatone in ethanol dried on filter paper; mortality reached at 24 hours
# Experimental: as §1, §2
# [14] = system: Aedes aegypti New Orleans strain adults; format: in vivo
# Experimental: (§3) Method: Nootkatone was solubilized in acetone to a concentration of 1%, 0.607%, 0.368%, 0.224%, 0.136%, 0.082%, and 0.05%. 0.5 mL of solution was dispensed into a 5 cm diameter glass Petri dish for each replicate to be tested, using a fume hood and appropriate personal protective equipment. Liquid was dispensed to ensure that the entire base of the dish was covered with solution. Dishes were transferred to an orbital shaker set at a speed of 200 revolutions per minute. The dishes were shaken for 15 minutes to ensure even distribution on the surface of the plate. Control dishes were prepared in the same way using 0.5 mL of acetone without nootkatone. Dishes were allowed to dry for 4 hours before use. Dishes were stored at 4° C. until use. Groups of 10 adult female mosquitoes, 2-5 days old, were gently aspirated into a transfer pot system, and were then gently tapped out onto the surface of the treated or control Petri dishes. Although attempts are made to have groups of exactly 10 mosquitoes, group size could vary. Groups of more than 15 mosquitoes were excluded from testing, due to overcrowding. The opening to the dishes through which the mosquitoes were introduced was covered with parafilm to prevent escape. After 30 minutes of exposure to the Petri dishes, mosquitoes were transferred to paper cups for additional observation. They were supplied with 10% sucrose solution ad libitum. Three replicates, or 30 total adult female mosquitoes were tested for each concentration of nootkatone in acetone, and for the acetone-only controls. The mosquitoes tested were either the Aedes aegypti New Orleans strain, or Anopheles gambiae Kisumu strain.
# as §2
# [15] = system: Anopheles gambiae Kisumu strain adults; format: in vivo
# Experimental: as §3, §2
# [16] = system: Aedes aegypti larvae; assay: Duration of larvicidal protection in treated water (Example 7); format: in vivo; conditions: 0.03% nootkatone/1% ethanol in water; larvae added 3-7 days after the water was treated; within 24 hours
# [17] = system: termites; assay: Nootkatone residue on filter paper (Example 13); format: in vivo, termite; conditions: 1% w/v nootkatone in ethanol dried on filter paper; at 72 hours
# Experimental: as §1, §2
structure (smiles),measurement,setting,value
"CCN(CC)C(=O)c1cccc(C)c1 [20% DEET in ethanol, N,N-Diethyl-meta-toluamide]",repellency against landings,[1],98%
same,repellency against probings (bites),[1],100%
OCc1ccccc1 [benzyl alcohol],LD50,[2],1200 mg/kg
same,solubility in water,[3],4 g/100 ml
C=C(C)[C@@H]1CCC2=CC(=O)C[C@@H](C)[C@]2(C)C1 [nootkatone],"pupae died, average",[4],94%
same,"pupae died, one experiment",[4],93%
same,"pupae died, second day of testing",[4],95%
same,surviving adults eclosed from pupae,[5],no surviving adults
same,mortality at 1 % strength,[6],100%
same,Mortality %,[7],100%
same,Mortality %,[8],98%
same,mortality at 1 % strength,[9],98%
same,mortality at 1 % strength,[10],98%
same,mortality at 1 % strength,[11],98%
same,killed,"[12]; 1% nootkatone dried on filter paper, within 24 hours",100%
same,Mortality %,"[12]; 1% w/v nootkatone in ethanol dried on filter paper, at 72 hours (table, no asterisk)",100%
same,Mortality %,[13],94%
same,adults knocked down,"[14]; residue of 0.5 mL 0.136% nootkatone in acetone on 5 cm glass dish, within 30 minutes",47%
same,mortality,"[14]; residue of 1% nootkatone in acetone, 30 minutes exposure, 24 hours after treatment",89%
same,nootkatone concentration required to obtain significant mortality,"[14]; residue on glass dish, 30 minutes exposure, 24 hours after treatment",0.224%
same,adults killed,"[15]; residue of 0.082% nootkatone, 24 hours after treatment",50%
same,adults knocked down,"[15]; residue of 0.5 mL 0.082% nootkatone in acetone on 5 cm glass dish, within 30 minutes",41%
same,mortality,"[15]; residue of 0.607% nootkatone, 24 hours after treatment",100%
same,mortality,"[15]; residue of 1% nootkatone, 24 hours after treatment",100%
same,larvae killed,[16],100%
same,Mortality %,[17],90%

# Source: US20200093123A1, “INSECTICIDAL EMULSION” (EVOLVA SA, priority 2016, published 2020)
